Test results taken from US10689377B2 (Mirati Therapeutics, Inc., priority 2017, dated 2020).

Target: KRas G12C (Homo sapiens, UniProt P01116, G12C)
Experiment: Cellular inhibition of KRas G12C measured by Phospho-ERK in NCI-H358 cells
Type: cell-based
Details: pERK(Thr202/Tyr204) normalized with GAPDH, NCI-H358 cells, 3 hours; read-out: IC50
Protocol: Cells were plated in poly-D-Lysine coated 96-well plates at a concentration of 50,000 cells/well and allowed to attach for 8-12 hours. Diluted compounds were then added at a final concentration of 0.5% DMSO. After 3 hours, the medium was removed, 150 μL of 4% formaldehyde was added and the plates were incubated for 20 minutes. The plates were washed with PBS, and permeabilized using 150 μL of ice cold 100% methanol for 10 minutes. Non-specific antibody binding to the plates was blocked using 100 μL Licor Blocking Buffer (Li-Cor Biotechnology, Lincoln Nebr.) for 1 hour at room temperature. Positive control samples and samples lacking cells were parallel processed with test samples as standards.
The amount Phospho-ERK was determined using an antibody specific for the phosphorylated form of ERK and compared to the amount of GAPDH. […] The plates were incubated for 2 hours at room temperature. The plates were washed with PBS+0.05% Tween 20.
Secondary antibodies used to visualize primary antibodies were added as follows: Anti-rabbit-680 diluted 1:1000 and Anti-mouse-800 diluted 1:1000 in Licor Block+0.05% Tween 20 and incubated for 1 hour at room temperature. The plates were washed with PBS+0.05% Tween 20. A 100 μL aliquot of PBS was added to each well and the plates were read on a LICOR AERIUS plate reader.
The pERK(Thr202/Tyr204) signal was normalized with the GAPDH signal and percent of DMSO control values were calculated. IC50 values were generated using a 4 parameter fit of the dose response curve. Key: “A”≥0.0001-≤1 μM; “B”>1 μM and ND=not determined.

KRas G12C, sequence (P01116 1-188 isoform P01116-2 G12C): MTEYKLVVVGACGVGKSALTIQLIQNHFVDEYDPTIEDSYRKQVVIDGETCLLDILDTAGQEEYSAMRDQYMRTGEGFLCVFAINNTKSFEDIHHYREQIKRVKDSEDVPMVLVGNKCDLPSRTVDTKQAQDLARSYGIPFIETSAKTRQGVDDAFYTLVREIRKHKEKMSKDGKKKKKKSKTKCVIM

Compound | IC50
C=CC(=O)N1CCN(c2nc(OCCCN(C)C)nc3c2CCN(c2cc(O)cc4ccccc24)C3)CC1 [Example 10, 1-(4-(2-(3-(dimethylamino)propoxy)-7-(3-hydroxynaphthalen-1-yl)-5,6,7,8-tetrahydropyrido[3,4-d]pyrimidin-4-yl)piperazin-1-yl)prop-2-en-1-one] | > 1 µM
C=CC(=O)N1CCN(c2nc(N3CCN(C)CC3)nc3c2CCN(c2cc(O)cc4ccccc24)C3)CC1 [Example 12, 1-(4-(7-(3-hydroxynaphthalen-1-yl)-2-(4-methylpiperazin-1-yl)-5,6,7,8-tetrahydropyrido[3,4-d]pyrimidin-4-yl)piperazin-1-yl)prop-2-en-1-one] | > 1 µM
C=CC(=O)N1CCN(c2nc(N3CCC(N(C)C)C3)nc3c2CCN(c2cc(O)cc4ccccc24)C3)CC1 (stereo not shown) [Example 13, 1-(4-(2-(3-(dimethylamino)pyrrolidin-1-yl)-7-(3-hydroxynaphthalen-1-yl)-5,6,7,8-tetrahydropyrido[3,4-d]pyrimidin-4-yl)piperazin-1-yl)prop-2-en-1-one] | > 1 µM
C=CC(=O)N1CCN(c2nc(OCCN(C)C)nc3c2CCN(c2cc(O)cc4ccccc24)C3)C[C@@H]1C [Example 14] | > 1 µM
C=CC(=O)N1CCN(c2nc(OCCN(C)C)nc3c2CCN(c2cc(O)cc4ccccc24)C3)C[C@H]1C [Example 15, (R)-1-(4-(2-(2-(dimethylamino)ethoxy)-7-(3-hydroxynaphthalen-1-yl)-5,6,7,8-tetrahydropyrido[3,4-d]pyrimidin-4-yl)-2-methylpiperazin-1-yl)prop-2-en-1-one] | > 1 µM
C=CC(=O)N1CC2(C1)CN(c1nc(OCCN(C)C)nc3c1CCN(c1cc(O)cc4ccccc14)C3)C2 [Example 16, 1-(6-(2-(2-(dimethylamino)ethoxy)-7-(3-hydroxynaphthalen-1-yl)-5,6,7,8-tetrahydropyrido[3,4-d]pyrimidin-4-yl)-2,6-diazaspiro[3.3]heptan-2-yl)prop-2-en-1-one] | > 1 µM
C=CC(=O)N1CCN(c2nc(N3CCC(N(C)C)CC3)nc3c2CCN(c2cc(O)cc4ccccc24)C3)CC1 [Example 17, 1-(4-(2-(4-(dimethylamino)piperidin-1-yl)-7-(3-hydroxynaphthalen-1-yl)-5,6,7,8-tetrahydropyrido[3,4-d]pyrimidin-4-yl)piperazin-1-yl)prop-2-en-1-one] | > 1 µM
C=CC(=O)N1CC2(C1)CN(c1nc(OC(C)CN(C)C)nc3c1CCN(c1cc(O)cc4ccccc14)C3)C2 (stereo not shown) [Example 18, 1-(6-(2-((1-(dimethylamino)propan-2-yl)oxy)-7-(3-hydroxynaphthalen-1-yl)-5,6,7,8-tetrahydropyrido[3,4-d]pyrimidin-4-yl)-2,6-diazaspiro[3.3]heptan-2-yl)prop-2-en-1-one] | > 1 µM
C=CC(=O)N1CC2(C1)CN(c1nc(OCCCN(C)C)nc3c1CCN(c1cc(O)cc4ccccc14)C3)C2 [Example 20, 1-(6-(2-(3-(dimethylamino)propoxy)-7-(3-hydroxynaphthalen-1-yl)-5,6,7,8-tetrahydropyrido[3,4-d]pyrimidin-4-yl)-2,6-diazaspiro[3.3]heptan-2-yl)prop-2-en-1-one] | > 1 µM
C=CC(=O)N1CCN(c2nc(OC3CCN(C)CC3)nc3c2CCN(c2cc(O)cc4ccccc24)C3)CC1 [Example 22, 1-(4-(7-(3-hydroxynaphthalen-1-yl)-2-((1-methylpiperidin-4-yl)oxy)-5,6,7,8-tetrahydropyrido[3,4-d]pyrimidin-4-yl)piperazin-1-yl)prop-2-en-1-one] | > 1 µM
C=CC(=O)N1CCN(c2nc(OC3CCN(C)C3)nc3c2CCN(c2cc(O)cc4ccccc24)C3)CC1 (stereo not shown) [Example 23, 1-(4-(7-(3-hydroxynaphthalen-1-yl)-2-((1-methylpyrrolidin-3-yl)oxy)-5,6,7,8-tetrahydropyrido[3,4-d]pyrimidin-4-yl)piperazin-1-yl)prop-2-en-1-one] | > 1 µM
C=CC(=O)N1CCN(c2nc(OC(C)CN(C)C)nc3c2CCN(c2cccc4ccccc24)C3)CC1 (stereo not shown) [Example 24, 1-(4-(2-((1-(dimethylamino)propan-2-yl)oxy)-7-(naphthalen-1-yl)-5,6,7,8-tetrahydropyrido[3,4-d]pyrimidin-4-yl)piperazin-1-yl)prop-2-en-1-one] | > 1 µM
C=CC(=O)N1CCN(c2nc(OCCCN(C)C)nc3c2CCN(C(C)c2ccccc2)C3)CC1 (stereo not shown) [Example 25, 1-(4-(2-(3-(dimethylamino)propoxy)-7-(1-phenylethyl)-5,6,7,8-tetrahydropyrido[3,4-d]pyrimidin-4-yl)piperazin-1-yl)prop-2-en-1-one] | > 1 µM

Next, values leading:

IC50 | Compound
> 1 µM | C=CC(=O)N1CCN(c2nc(OC[C@@H]3CCCC(=O)N3)nc3c2CCN(c2cc(O)cc4ccccc24)C3)CC1 (single isomer, unassigned) [Example 61]
> 1 µM | C=CC(=O)N1CCN(c2nc(OC[C@H]3CCCC(=O)N3)nc3c2CCN(c2cc(O)cc4ccccc24)C3)CC1 (single isomer, unassigned) [Example 62]
> 1 µM | C=CC(=O)N1CCN(c2nc(OC[C@H](O)CN3CCOCC3)nc3c2CCN(c2cc(O)cc4ccccc24)C3)CC1 (single isomer, unassigned) [Example 215]
> 1 µM | C=CC(=O)N1CCN(c2nc(OC[C@@H](O)CN3CCOCC3)nc3c2CCN(c2cc(O)cc4ccccc24)C3)CC1 (single isomer, unassigned) [Example 216]
> 1 µM | C=CC(=O)N1CCN(c2ncnc3c2CCN(c2cc(O)cc4ccccc24)C3)CC1 [Example 1, 1-(4-(7-(3-hydroxynaphthalen-1-yl)-5,6,7,8-tetrahydropyrido[3,4-d]pyrimidin-4-yl)piperazin-1-yl)prop-2-en-1-one]
> 1 µM | C=CC(=O)N1CCN(c2ncnc3c2CCN(c2cccc4ccccc24)C3)CC1 [Example 3, 1-(4-(7-(naphthalen-1-yl)-5,6,7,8-tetrahydropyrido[3,4-d]pyrimidin-4-yl)piperazin-1-yl)prop-2-en-1-one]
> 1 µM | C=CC(=O)N1CCN(c2ncnc3c2CCN(c2c(O)cccc2F)C3)CC1 [Example 4, 1-(4-(7-(2-fluoro-6-hydroxyphenyl)-5,6,7,8-tetrahydropyrido[3,4-d]pyrimidin-4-yl)piperazin-1-yl)prop-2-en-1-one]
> 1 µM | C=CC(=O)N1CCN(c2ncnc3c2CCN(c2cc(O)ccc2F)C3)CC1 [Example 5, 1-(4-(7-(2-fluoro-5-hydroxyphenyl)-5,6,7,8-tetrahydropyrido[3,4-d]pyrimidin-4-yl)piperazin-1-yl)prop-2-en-1-one]
> 1 µM | C=CC(=O)N1CCN(c2ncnc3c2CC(C)N(c2cc(O)cc4ccccc24)C3)CC1 (stereo not shown) [Example 6, 1-(4-(7-(3-hydroxynaphthalen-1-yl)-6-methyl-5,6,7,8-tetrahydropyrido[3,4-d]pyrimidin-4-yl)piperazin-1-yl)prop-2-en-1-one]
> 1 µM | C=CC(=O)N1CCN(c2ncnc3c2CCN(c2c(C)ccc4[nH]ncc24)C3)CC1 [Example 7, 1-(4-(7-(5-methyl-1H-indazol-4-yl)-5,6,7,8-tetrahydropyrido[3,4-d]pyrimidin-4-yl)piperazin-1-yl)prop-2-en-1-one]
> 1 µM | C=CC(=O)N1CCN(c2nc(O[C@@H](C)CN(C)C)nc3c2CCN(c2cc(O)cc4ccccc24)C3)CC1 [Example 8, (S)-1-(4-(2-((1-(dimethylamino)propan-2-yl)oxy)-7-(3-hydroxynaphthalen-1-yl)-5,6,7,8-tetrahydropyrido[3,4-d]pyrimidin-4-yl)piperazin-1-yl)prop-2-en-1-one]
> 1 µM | C=CC(=O)N1CCN(c2nc(OCCN(C)C)nc3c2CCN(c2cc(O)cc4ccccc24)C3)CC1 [Example 9, 1-(4-(2-(2-(dimethylamino)ethoxy)-7-(3-hydroxynaphthalen-1-yl)-5,6,7,8-tetrahydropyrido[3,4-d]pyrimidin-4-yl)piperazin-1-yl)prop-2-en-1-one]
0.0001 to 1 µM | C=CC(=O)N1CCN(c2nc(OC(C)CN(C)C)nc3c2CCN(c2cc(O)cc4ccccc24)C3)CC1 (stereo not shown) [Example 11, 1-(4-(2-((1-(dimethylamino)propan-2-yl)oxy)-7-(3-hydroxynaphthalen-1-yl)-5,6,7,8-tetrahydropyrido[3,4-d]pyrimidin-4-yl)piperazin-1-yl)prop-2-en-1-one]
0.0001 to 1 µM | C=CC(=O)N1CCN(c2nc(O[C@H](C)CN(C)C)nc3c2CCN(c2cc(O)cc4ccccc24)C3)CC1 [Example 19, (R)-1-(4-(2-((1-(dimethylamino)propan-2-yl)oxy)-7-(3-hydroxynaphthalen-1-yl)-5,6,7,8-tetrahydropyrido[3,4-d]pyrimidin-4-yl)piperazin-1-yl)prop-2-en-1-one]
0.0001 to 1 µM | C=CC(=O)N1CCN(c2nc(OC(C)CCN(C)C)nc3c2CCN(c2cc(O)cc4ccccc24)C3)CC1 (stereo not shown) [Example 21, 1-(4-(2-((4-(dimethylamino)butan-2-yl)oxy)-7-(3-hydroxynaphthalen-1-yl)-5,6,7,8-tetrahydropyrido[3,4-d]pyrimidin-4-yl)piperazin-1-yl)prop-2-en-1-one]
